In patent publication US12643887B2, “Heterocyclic derivatives with cardiomyocyte proliferation activity for treatment of heart diseases” (Tongji University, priority 2019, dated 2026):
pIC50: −log10 of the molar value.

Key:
human CLK1 = target: T1, human CLK1 (Homo sapiens, UniProt P49759); test: CLK1 enzyme assay (ADP-Glo); format: biochemical; conditions: ADP-Glo, ATP 10 μM; read-out: CLK1 IC50
T1 construct: Recombinant human CLK1 (129-end); GST (N); purchased SignalChem C57-11G; host or cells: Sf9 insect cells
T1 sequence (P49759 129-484 limits assumed): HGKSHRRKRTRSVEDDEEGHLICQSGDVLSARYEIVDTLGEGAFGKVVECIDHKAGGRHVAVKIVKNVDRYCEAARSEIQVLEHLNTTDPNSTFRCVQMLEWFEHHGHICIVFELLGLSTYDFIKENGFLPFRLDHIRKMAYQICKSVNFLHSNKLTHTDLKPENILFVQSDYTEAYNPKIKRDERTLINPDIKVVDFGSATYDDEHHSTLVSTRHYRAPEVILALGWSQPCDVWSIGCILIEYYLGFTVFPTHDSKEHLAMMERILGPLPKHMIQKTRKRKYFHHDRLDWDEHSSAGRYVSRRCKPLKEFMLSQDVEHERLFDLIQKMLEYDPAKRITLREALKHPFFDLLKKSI
Protocol: The ability of compounds to inhibit human CLK1 kinase activities was determined using a commercially available ADP-Glo™ Kinase Assay kit (Promega, Cat #V9102) according to the manufacturer's protocol.
Recombinant human CLK1 (129-end) (expressed in Sf9 insect cells with an N-terminal GST tag) was purchased from SignalChem (Cat #C57-11G). Recombinant full length human MBP (expressed in E. Coli cells with an N-terminal GST tag.) was purchased from SignalChem (Cat #M42-54G). This assay, run in a 384-well plate format, is a generic method for measuring kinase activities using an ADP-Glo Kinase Assay Kit. The basic assay procedure involves two steps: (1) Enzymatic step: inhibitors are incubated with the kinase and then ATP (included in the ADP-Glo Kinase Assay Kit) and the MBP protein are added to start the enzymatic reaction; (2) Detection step: after the kinase reaction, first ADP-Glo™ Reagent is added to terminate the kinase reaction and deplete the remaining ATP. Second, the Kinase Detection Reagent is added to simultaneously convert ADP to ATP and allow the newly synthesized ATP to be measured using a luciferase/luciferin reaction. The light generated is measured using a luminometer.
Briefly, CLK1 (16 nM) in the enzymatic buffer solutions (40 mM Tris, pH 7.5, 20 mM MgCl2, 0.1 mg/ml BSA, 50 μM DTT) were mixed with various concentrations of inhibitors (dissolved in 100% DMSO). These solutions were incubated for 30 minutes at 25° C., and subsequently a mixture of substrate peptide and ATP was added with the final peptide and ATP concentrations at 2 μM and 10 μM, respectively. The final reaction mixture of enzyme-substrate-ATP-compound was incubated for 60 minutes at 25° C.
Afterwards ADP-Glo™ Reagent was added and the mixture was incubated at 25° C. for 60 minutes. Then Kinase Detection Reagent was added and the final mixture was incubated at 25° C. for 60 minutes. The luminescence signal of the final solution was measured on an Envision instrument (PerkinElmer). The percent (%) inhibition at each concentration of a compound is calculated relative to the luminescence signal in the Max and Min control wells contained within each assay plate. […] The concentrations and percent inhibition values for a test compound are plotted and the concentration of the compound required to achieve 50% inhibition (IC50) is determined with a four-parameter logistic dose response equation.

[1] = tested on: Neonatal Rat Ventricular Myocytes (NRVMs); test: Myocyte proliferation assay (EdU assay) in neonatal rat ventricular myocytes; format: cell-based; conditions: growth relative to blank myocyte growth without compound added; for Avg 1 uM (average myocyte proliferation): compound 1 uM; for Avg 3 uM (average myocyte proliferation): compound 3 uM; for Avg 10 uM (average myocyte proliferation): compound 10 uM
Protocol: 1. Isolation of and Culture Neonatal Rat Ventricular Myocytes (NRVMs)
Ventricles from neonatal rats were separated from the atria, cut into small pieces (about 2×2 mm^2) and then dissociated in Ca2+-free HBSS containing 0.125 mg ml-1 trypsin (Gibco), 10 μg ml-1 DNase II (Sigma) and 0.1 mg ml-1 collagenase type IV (Sigma). The digestion was carried out under constant stirring at 37° C. for 5 min. The supernatant was collected with FBS (Gibco) after each digestion period. After digestion, the collected supernatant was centrifuged at 1000 g for 10 min at room temperature, and then cell pellets were resuspended in DMEM (Gibco) supplemented with 10% FBS and with 100 uM 5-bromo-2′-deoxyuridine (Sigma). The resuspended cells were passed through a cell strainer ([…], BD Falcon) and seeded onto 100-mm plastic dishes for 2 h at 37° C. in a 5% CO2 to remove fibroblasts, the supernatant was then collected and plated onto 1% gelatin (Sigma)-coated dishes. 24 h after the seeding, the medium was changed to DMEM (Gibco) containing 2% FBS (Gibco), 1% insulin-transferrin-selenium (ITS; Gibco), 1% Penicillin-Streptomycin (Gibco). After 24 hours of low serum culture, remove the medium with DMEM (Gibco) containing 6% FBS (Gibco), 1% insulin-transferrin-selenium (ITS; Gibco), 1% Penicillin-Streptomycin (Gibco), different concentrations of compounds (the compounds were pre-diluted in the medium and the drug concentration was 10 uM, 3 uM, 1 uM, fully mixed). After 36 h add Edu substrate (Invitrogen) according to the manufacturer's guidelines, and then after 12 h cell can be used.
• 2.1. Immobilization: Remove the medium and fix the cells with […] in 200 ul (whichever is covered) for 15 min and wash the cells twice with 500 ul of PBS for 5 min each time. • 2.2. Broken membrane: Add 200 ul of 0.3% Triton-X 100 (diluted in PBS) to each well, incubate for 10-15 min at room temperature (the time should not be too long), and wash the cells twice with 500 ul of PBS for 5 min each time. • 2.3. Blocking: Add 200 ul of 10% normal goat serum (diluted with 0.1% PBST) to each well, incubate for 1 h at room temperature, and wash twice with 500 ul of 0.1% PBST for 5 min each time. • 2.4. Primary antibody: dilute the primary antibody (abcam, ab8295) to blocking solution at a ratio of 1:200, add 100 ul per well, incubate for 1 h at room temperature (may be slightly longer than 2-3 h), wash the cells twice with 500 ul 0.1% PBST for 5 min each time. • 2.5. Secondary antibody: Dilute the fluorescently labeled secondary antibody (abcam, ab150117) into blocking solution at a ratio of 1:200, add 100 ul per well, incubate for 1 h at room temperature (the time should not be too long), wash the cells twice with 0.1% PBST for 5 min each time, pay attention to the whole process. Protected from light. • 2.6. Edu staining (Invitrogen C10338) • 2.6.1 Prepare Click-iT® reaction cocktail according to Table 3. It was important to add the ingredients in the order listed in the table; otherwise, the reaction would not proceed optimally. Use the Click-iT® reaction cocktail within 15 minutes of preparation.
• 2.6.2 Add 0.1 mL of Click-iT® reaction cocktail to each well containing a coverslip. Rock the plate briefly to ensure that the reaction cocktail is distributed evenly over the coverslip. • 2.6.3 Incubate the plate for 30 minutes at room temperature, protected from light. • 2.6.4 Remove the reaction cocktail, then wash the cells twice with 0.1% PBST for 5 min each time. • 2.7. DAPI staining: DAPI stain was diluted to PBS at a ratio of 1:1000, 100 ul per well, incubated for 30 min at room temperature, and the cells were washed twice with PBS for 5 min each. 3. Data Analysis
We used Molecular Devices' Image Xpress Micro Confocal for high-throughput photo and data analysis.

SMILES	pIC50 (human CLK1)	Avg 1 uM (average myocyte proliferation) [1]	Avg 3 uM (average myocyte proliferation) [1]	Avg 10 uM (average myocyte proliferation) [1]
O=C1/C(=C/c2ccc3ncsc3c2)N=C(N(Cc2ccccc2)c2ccccc2)N1Cc1ccccc1 [Example 42, (Z)-5-(benzo[d]thiazol-6-ylmethylene)-3-benzyl-2-(benzyl(phenyl)amino)-3,5-dihydro-4H-imidazol-4-one]	< 5.00	** (10%-50%)	** (10%-50%)	*** (>50%)
O=C1NC(Nc2ccc3[nH]ccc3c2)=N/C1=C\c1ccc2ncsc2c1 [Example 69, (Z)-2-((1H-indol-5-yl)amino)-5-(benzo[d]thiazol-6-ylmethylene)-3,5-dihydro-4H-imidazol-4-one]	> 7.00	** (10%-50%)	* (<10% growth relative to blank myocyte growth without compound added.)	
CN(CCN1CCOCC1)C1=N/C(=C\c2ccc3c(c2)OCO3)C(=O)N1 [Example 20, (Z)-5-(benzo[d][1,3]dioxol-5-ylmethylene)-2-(methyl(2-morpholinoethyl)amino)-3,5-dihydro-4H-imidazol-4-one]	6.00 to 7.00	* (<10% growth relative to blank myocyte growth without compound added.)	* (<10% growth relative to blank myocyte growth without compound added.)	** (10%-50%)
CN(CC1CC1)C1=N/C(=C\c2ccc3ncsc3c2)C(=O)N1 [Example 33, (Z)-5-(benzo[d]thiazol-6-ylmethylene)-2-((cyclopropylmethyl)(methyl)amino)-3,5-dihydro-4H-imidazol-4-one]	6.00 to 7.00	* (<10% growth relative to blank myocyte growth without compound added.)	* (<10% growth relative to blank myocyte growth without compound added.)	
CN(CC1CC1)C1=N/C(=C\c2ccc3c(c2)OCCO3)C(=O)N1 [Example 19, (Z)-2-((cyclopropylmethyl)(methyl)amino)-5-((2,3-dihydrobenzo[b][1,4]dioxin-6-yl)methylene)-3,5-di hydro-4H-imidazol-4-one]	5.00 to 6.00	* (<10% growth relative to blank myocyte growth without compound added.)	* (<10% growth relative to blank myocyte growth without compound added.)	* (<10% growth relative to blank myocyte growth without compound added.)
O=C1NC(Nc2ccccc2)=N/C1=C\c1ccc2ncccc2c1 [Example 53, (Z)-2-(phenylamino)-5-(quinolin-6-ylmethylene)-3,5-dihydro-4H-imidazol-4-one]	> 7.00	** (10%-50%)	*** (>50%)	** (10%-50%)
CC(C)NC1=N/C(=C\c2ccc3scnc3c2)C(=O)N1 [Example 49, (Z)-5-(benzo[d]thiazol-5-ylmethylene)-2-(isopropylamino)-3,5-dihydro-4H-imidazol-4-one]	< 5.00	* (<10% growth relative to blank myocyte growth without compound added.)	** (10%-50%)	*** (>50%)
O=C1NC(Nc2ccc3ncsc3c2)=N/C1=C\c1ccc2cc[nH]c2c1 [Example 63, (Z)-5-((1H-indol-6-yl)methylene)-2-(benzo[d]thiazol-6-ylamino)-3,5-dihydro-4H-imidazol-4-one]	< 5.00	* (<10% growth relative to blank myocyte growth without compound added.)	* (<10% growth relative to blank myocyte growth without compound added.)	
